Where “and” joins values, the source holds several entries; their conditions need not be identical. Equal values may be shown once.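 Grown in 96-well plates, cells were treated for 48 hours with each compound at five concentrations. Insufficient inhibition: endpoint recorded as highest concentration tested. Here, GI50 denotes the concentration required for 50% inhibition of growth. At the TGI there is no net growth.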
Assays:
Assay in all cases: growth of human tumour cells (NCI), 48 h
786-0 renal = system: 786-0 renal
A498 renal = system: A498 renal
A549 NSCLC = system: A549 NSCLC
ACHN renal = system: ACHN renal
BT-549 breast = system: BT-549 breast
CAKI-1 renal = system: CAKI-1 renal
CCRF-CEM leukemia = system: CCRF-CEM leukemia
COLO 205 colon = system: COLO 205 colon
DU-145 prostate = system: DU-145 prostate
HCC-2998 colon = system: HCC-2998 colon
HCT-116 colon = system: HCT-116 colon
HCT-15 colon = system: HCT-15 colon
HL-60(TB) leukemia = system: HL-60(TB) leukemia
HOP-62 NSCLC = system: HOP-62 NSCLC
HOP-92 NSCLC = system: HOP-92 NSCLC
HS 578T breast = system: HS 578T breast
HT29 colon = system: HT29 colon
IGROV1 ovarian = system: IGROV1 ovarian
K-562 leukemia = system: K-562 leukemia
KM12 colon = system: KM12 colon
LOX IMVI melanoma = system: LOX IMVI melanoma
M14 melanoma = system: M14 melanoma
MALME-3M melanoma = system: MALME-3M melanoma
MCF7 breast = system: MCF7 breast
MDA-MB-231 breast = system: MDA-MB-231 breast
MDA-MB-435 = system: MDA-MB-435
MOLT-4 leukemia = system: MOLT-4 leukemia
NCI-H226 lung = system: NCI-H226 lung
NCI-H23 lung = system: NCI-H23 lung
NCI-H460 lung = system: NCI-H460 lung
NCI-H522 lung = system: NCI-H522 lung
NCI/ADR-RES ovarian = system: NCI/ADR-RES ovarian
OVCAR-3 ovarian = system: OVCAR-3 ovarian
OVCAR-4 ovarian = system: OVCAR-4 ovarian
OVCAR-5 ovarian = system: OVCAR-5 ovarian
OVCAR-8 ovarian = system: OVCAR-8 ovarian
PC-3 prostate = system: PC-3 prostate
RPMI-8226 leukemia = system: RPMI-8226 leukemia
RXF 393 renal = system: RXF 393 renal
SF-268 CNS = system: SF-268 CNS
SF-295 CNS = system: SF-295 CNS
SF-539 CNS = system: SF-539 CNS
SK-MEL-2 melanoma = system: SK-MEL-2 melanoma
SK-MEL-28 melanoma = system: SK-MEL-28 melanoma
SK-MEL-5 melanoma = system: SK-MEL-5 melanoma
SK-OV-3 ovarian = system: SK-OV-3 ovarian
SN12C renal = system: SN12C renal
SNB-19 CNS = system: SNB-19 CNS
SNB-75 CNS = system: SNB-75 CNS
SR leukemia = system: SR leukemia
SW-620 colon = system: SW-620 colon
T-47D breast = system: T-47D breast
TK-10 renal = system: TK-10 renal
U251 CNS = system: U251 CNS
UACC-257 melanoma = system: UACC-257 melanoma
UACC-62 melanoma = system: UACC-62 melanoma
UO-31 renal = system: UO-31 renal

In the case of `Cc1cc(C(=O)NC(CCC(=O)O)C(=O)O)sc1CCC1CNc2nc(N)[nH]c(=O)c2C1` (centres undefined), the GI50 (786-0 renal) was less than 10 nM, the TGI (786-0 renal) was greater than 100000 nM and the GI50 (A498 renal) was 199 nM and 94.5 nM. For the same molecule, the TGI (A498 renal) was greater than 100000 nM, the GI50 (A549 NSCLC) was 43.7 nM and 156 nM and the TGI (A549 NSCLC) was greater than 100000 nM. For the same molecule, the GI50 (ACHN renal) was 13.3 nM and 43.5 nM, the TGI (ACHN renal) was greater than 100000 nM and the GI50 (BT-549 breast) was 370 nM and 2390 nM. For the same molecule, the TGI (BT-549 breast) was greater than 100000 nM, the GI50 (CAKI-1 renal) was < 18 nM and 23.4 nM and the TGI (CAKI-1 renal) was greater than 100000 nM. For the same molecule, the GI50 (CCRF-CEM leukemia) was 12.3 nM and 27.3 nM, the TGI (CCRF-CEM leukemia) was greater than 100000 nM and the GI50 (COLO 205 colon) was 34.1 nM and 50.9 nM. The TGI (COLO 205 colon) was greater than 100000 nM, the GI50 (DU-145 prostate) was < 15.8 nM and 40.7 nM and the TGI (DU-145 prostate) was greater than 100000 nM. For the same molecule, the GI50 (HCC-2998 colon) was 67.7 nM and 323 nM, the TGI (HCC-2998 colon) was greater than 100000 nM and the GI50 (HCT-116 colon) was < 19.8 nM and 35.7 nM. The TGI (HCT-116 colon) was greater than 100000 nM, the GI50 (HCT-15 colon) was 50.2 nM and 330 nM and the TGI (HCT-15 colon) was greater than 100000 nM. The GI50 (HL-60(TB) leukemia) was 36.6 nM and 55.8 nM, the TGI (HL-60(TB) leukemia) was greater than 100000 nM and the GI50 (HOP-62 NSCLC) was 53.3 nM and 80.6 nM. The TGI (HOP-62 NSCLC) was greater than 100000 nM, the GI50 (HOP-92 NSCLC) was 179 nM and 80.2 nM and the TGI (HOP-92 NSCLC) was greater than 100000 nM. The GI50 (HS 578T breast) was 2130 nM and 8890 nM, the TGI (HS 578T breast) was greater than 100000 nM and the GI50 (HT29 colon) was < 19.8 nM and 32.2 nM. For the same molecule, the TGI (HT29 colon) was greater than 100000 nM, the GI50 (IGROV1 ovarian) was 46.4 nM and 192 nM and the TGI (IGROV1 ovarian) was greater than 100000 nM. The GI50 (K-562 leukemia) was less than 10 nM, the TGI (K-562 leukemia) was greater than 100000 nM and the GI50 (KM12 colon) was 38.3 nM and 93.7 nM. The TGI (KM12 colon) was greater than 100000 nM, the GI50 (LOX IMVI melanoma) was 29.4 nM and 36.5 nM and the TGI (LOX IMVI melanoma) was greater than 100000 nM. The GI50 (M14 melanoma) was < 19.2 nM and 50.1 nM, the TGI (M14 melanoma) was greater than 100000 nM and the TGI (MALME-3M melanoma) was greater than 100000 nM. The GI50 (MCF7 breast) was < 11.4 nM and 34.6 nM, the TGI (MCF7 breast) was greater than 100000 nM and the GI50 (MDA-MB-231 breast) was 6720 nM and 12800 nM. For the same molecule, the TGI (MDA-MB-231 breast) was greater than 100000 nM, the GI50 (MDA-MB-435) was 35.4 nM and 54.2 nM and the TGI (MDA-MB-435) was greater than 100000 nM. The GI50 (MOLT-4 leukemia) was 29.7 nM and 45.3 nM, the TGI (MOLT-4 leukemia) was greater than 100000 nM and the GI50 (NCI-H226 lung) was less than 12.8 nM. The TGI (NCI-H226 lung) was greater than 100000 nM, the TGI (NCI-H23 lung) was greater than 100000 nM and the GI50 (NCI-H460 lung) was < 18.6 nM and 40.4 nM. For the same molecule, the TGI (NCI-H460 lung) was greater than 100000 nM, the GI50 (NCI-H522 lung) was < 22.6 nM and 54.6 nM and the TGI (NCI-H522 lung) was greater than 100000 nM. For the same molecule, the GI50 (NCI/ADR-RES ovarian) was 49.9 nM and 75.8 nM, the TGI (NCI/ADR-RES ovarian) was greater than 100000 nM and the GI50 (OVCAR-3 ovarian) was 52.3 nM and 487 nM. The TGI (OVCAR-3 ovarian) was greater than 100000 nM, the GI50 (OVCAR-4 ovarian) was 121 nM and 167 nM and the TGI (OVCAR-4 ovarian) was greater than 100000 nM. The GI50 (OVCAR-5 ovarian) was 38.3 nM and 72.3 nM, the TGI (OVCAR-5 ovarian) was greater than 100000 nM and the GI50 (OVCAR-8 ovarian) was < 21.5 nM and 45.4 nM. For the same molecule, the TGI (OVCAR-8 ovarian) was greater than 100000 nM, the GI50 (PC-3 prostate) was less than 10 nM and the TGI (PC-3 prostate) was greater than 100000 nM. For the same molecule, the GI50 (RPMI-8226 leukemia) was 150 nM and 229 nM, the TGI (RPMI-8226 leukemia) was greater than 100000 nM and the GI50 (RXF 393 renal) was 15 nM and < 15.8 nM. For the same molecule, the TGI (RXF 393 renal) was greater than 100000 nM, the GI50 (SF-268 CNS) was 44 nM and 72.1 nM and the TGI (SF-268 CNS) was greater than 100000 nM. The GI50 (SF-295 CNS) was 53.7 nM and 97.3 nM, the TGI (SF-295 CNS) was greater than 100000 nM and the GI50 (SF-539 CNS) was 38.3 nM and 52.1 nM. The TGI (SF-539 CNS) was greater than 100000 nM, the TGI (SK-MEL-2 melanoma) was greater than 100000 nM and the GI50 (SK-MEL-28 melanoma) was 43.5 nM and 64.3 nM. For the same molecule, the TGI (SK-MEL-28 melanoma) was greater than 100000 nM, the GI50 (SK-MEL-5 melanoma) was 56 nM and 279 nM and the TGI (SK-MEL-5 melanoma) was greater than 100000 nM. The GI50 (SK-OV-3 ovarian) was 10.3 nM and 18.1 nM, the TGI (SK-OV-3 ovarian) was greater than 100000 nM and the GI50 (SN12C renal) was 31.5 nM and 48.2 nM. For the same molecule, the TGI (SN12C renal) was greater than 100000 nM, the GI50 (SNB-19 CNS) was 78.3 nM and 606 nM and the TGI (SNB-19 CNS) was greater than 100000 nM. The TGI (SNB-75 CNS) was greater than 100000 nM, the GI50 (SR leukemia) was < 15.6 nM and 26.3 nM and the TGI (SR leukemia) was greater than 100000 nM. For the same molecule, the GI50 (SW-620 colon) was < 17.4 nM and 25.5 nM, the TGI (SW-620 colon) was greater than 100000 nM and the TGI (T-47D breast) was greater than 100000 nM. The GI50 (TK-10 renal) was 35.5 nM and 65 nM, the TGI (TK-10 renal) was greater than 100000 nM and the GI50 (U251 CNS) was 36.8 nM and 43.9 nM. For the same molecule, the TGI (U251 CNS) was greater than 100000 nM, the GI50 (UACC-257 melanoma) was 72.2 nM and 228 nM and the TGI (UACC-257 melanoma) was greater than 100000 nM. The GI50 (UACC-62 melanoma) was 49 nM and 55.7 nM, the TGI (UACC-62 melanoma) was greater than 100000 nM and the GI50 (UO-31 renal) was 31.9 nM and 59.2 nM. The TGI (UO-31 renal) was greater than 100000 nM.
